Data taken from ChEMBL document CHEMBL4813973, “Discovery of novel N-benzylbenzamide derivatives as tubulin polymerization inhibitors with potent antitumor activities” (Eur J Med Chem, 2021).
Activity calls are given as the source filed them. The rule behind the calls is not given here.

Legend:
A-431 [1] = assay: Induction of apoptosis in human A-431 cells assessed as chromatin condensation at 7.5 to 30 nM incubated for 48 hrs by Hoechst33342 staining based fluorescent microscopy; type: functional, cell-based; settings: dose 7.5-30 nM
A-431 [2] = assay: Induction of apoptosis in human A-431 cells assessed as nuclear fragmentation at 7.5 to 30 nM incubated for 48 hrs by Hoechst33342 staining based fluorescent microscopy; type: functional, cell-based; settings: dose 7.5-30 nM
A-431 [3] = assay: Induction of apoptosis in human A-431 cells assessed as activation of p53 at 7.5 to 30 nM by western blot analysis; type: functional, cell-based; settings: dose 7.5-30 nM
[4] = Induction of mitochondria membrane potential loss in human A-431 cells assessed as green fluorescence intensity at 15 nM incubated 48 hrs by JC-1 probe based flow cytometry analysis (reference value: 5.98%); type: functional
A-431 [5] = assay: Antiproliferative activity against human A-431 cells assessed as reduction in cell viability incubated for 72 hrs by MTT assay; type: functional, cell-based; settings: A-431, 72 h
MDA-MB-231 = assay: Antiproliferative activity against human MDA-MB-231 cells assessed as reduction in cell viability incubated for 72 hrs by MTT assay; type: functional, cell-based; settings: MDA-MB-231, 72 h
L02 = assay: Cytotoxicity against human L02 cells assessed as reduction in cell viability incubated for 72 hrs by MTT assay; type: cell-based; settings: L02, 72 h
Bel-7402 = assay: Antiproliferative activity against ADR-resistant human Bel-7402 cells assessed as reduction in cell viability incubated for 72 hrs by MTT assay; type: functional, cell-based; settings: Homo sapiens, Bel-7402, 72 h; read-out: IC50
[6] = Resistant index, ratio of IC50 for VCR resistant human K562 cells to IC50 for human K562 cells; type: functional
[7] = Inhibition of pig brain tubulin polymerisation incubated for 30 mins and measured every 2 mins for 60 mins by spectrophotometric method; type: tissue-based, Sus scrofa
A-431 [8] = assay: Anti-microtubule activity in human A-431 cells assessed as disruption of microtubule network at 7.5 to 30 nM incubated for 24 hrs by DAPI staining based confocal microscopic analysis; type: functional, cell-based; settings: dose 7.5-30 nM
A-431 [9] = assay: Anti-microtubule activity in human A-431 cells assessed as loss of cellular structure at 7.5 to 30 nM incubated for 24 hrs by DAPI staining based confocal microscopic analysis; type: functional, cell-based; settings: dose 7.5-30 nM
A-431 [10] = assay: Anti-microtubule activity in human A-431 cells assessed as cell membrane rounding at 7.5 to 30 nM incubated for 24 hrs by DAPI staining based confocal microscopic analysis; type: functional; settings: dose 7.5-30 nM
A-431 [11] = assay: Induction of cell cycle arrest in human A-431 cells assessed as accumulation at G1 phase at 7.5 nM after 48 hrs by propidium iodide staining based flow cytometry (reference value: 41.16%); type: functional
A-431 [12] = assay: Induction of cell cycle arrest in human A-431 cells assessed as accumulation at S phase at 7.5 nM after 48 hrs by propidium iodide staining based flow cytometry (reference value: 46.57%); type: functional
A-431 [13] = assay: Induction of cell cycle arrest in human A-431 cells assessed as accumulation at G2 phase at 7.5 nM after 48 hrs by propidium iodide staining based flow cytometry (reference value: 7.27%); type: functional
A-431 [14] = assay: Induction of cell cycle arrest in human A-431 cells assessed as accumulation at G1 phase at 15 nM after 48 hrs by propidium iodide staining based flow cytometry (reference value: 41.16%); type: functional
A-431 [15] = assay: Induction of cell cycle arrest in human A-431 cells assessed as accumulation at S phase at 15 nM after 48 hrs by propidium iodide staining based flow cytometry (reference value: 46.57%); type: functional
A-431 [16] = assay: Induction of cell cycle arrest in human A-431 cells assessed as accumulation at S phase at 30 nM after 48 hrs by propidium iodide staining based flow cytometry (reference value: 46.57%); type: functional
A-431 [17] = assay: Induction of cell cycle arrest in human A-431 cells assessed as accumulation at G2 phase at 30 nM after 48 hrs by propidium iodide staining based flow cytometry (reference value: 7.27%); type: functional
A-431 [18] = assay: Induction of apoptosis in human A-431 cells assessed as necrotic cells at 7.5 nM after 48 hrs by Annexin-V-APC/PI-staining based flow cytometric analysis (reference value: 3.79%); type: functional
A-431 [19] = assay: Induction of apoptosis in human A-431 cells assessed as late apoptotic cells at 15 nM after 48 hrs by Annexin-V-APC/PI-staining based flow cytometric analysis (reference value: 2.02%); type: functional
A-431 [20] = assay: Induction of apoptosis in human A-431 cells assessed as necrotic cells at 15 nM after 48 hrs by Annexin-V-APC/PI-staining based flow cytometric analysis (reference value: 3.79%); type: functional
A-431 [21] = assay: Induction of apoptosis in human A-431 cells assessed as early apoptotic cells at 30 nM after 48 hrs by Annexin-V-APC/PI-staining based flow cytometric analysis (reference value: 0.82%); type: functional
A-431 [22] = assay: Induction of apoptosis in human A-431 cells assessed as downregulation of Bcl2 protein expression by western blot analysis; type: functional, cell-based; settings: dose 7.5-30 nM
A-431 [23] = assay: Induction of apoptosis in human A-431 cells assessed as activation of caspase 9 at 7.5 to 30 nM by western blot analysis; type: functional, cell-based; settings: dose 7.5-30 nM
A-431 [24] = assay: Induction of apoptosis in human A-431 cells assessed as increase in cleaved PARP expression at 7.5 to 30 nM by western blot analysis; type: functional, cell-based; settings: dose 7.5-30 nM
[25] = Metabolic stability in rat plasma assessed as parent compound remaining at 100 nM measured after 60 mins by HPLC analysis; type: ADME, cell-free; settings: 1 h, 0.1 µM
[26] = Metabolic stability in rat plasma assessed as parent compound remaining at 100 nM measured after 3 hrs by HPLC analysis; type: ADME, cell-free; settings: read-out: Stabilty
H22 [27] = assay: Antitumor activity against […] xenografted in ICR mouse assessed as reduction of tumor weight at 20 mg/kg/day, iv for 21 days; type: functional; settings: 504 h, time 21 day
[28] = Toxicity in ICR mouse xenografted with […] cells assessed as effect on body weight at 20 mg/kg/day, iv for 21 days; type: organism-based; settings: in vivo, 504 h, time 21 day
HUVEC [29] = assay: Antivascular activity in HUVEC assessed as inhibition of capillary like tube formation at 30 nM incubated for 6 hrs by matrigel based inverted fluorescence microscopic analysis; type: functional, cell-based; settings: Homo sapiens
H22 [30] = assay: Antitumor activity against […] xenografted in ICR mouse assessed as reduction of tumor weight at 10 mg/kg/day, iv for 21 days; type: functional; settings: 504 h, time 21 day
H22 [31] = assay: Antitumor activity against […] xenografted in ICR mouse assessed as reduction in tumor growth at 20 mg/kg/day, iv for 21 days; type: functional, organism-based; settings: time 21.0 day
HUVEC [32] = assay: Antivascular activity in HUVEC assessed as inhibition of migration activity at 30 nM measured after 24 hrs by wound healing based phase contrast microscopic analysis; type: functional, cell-based; settings: Homo sapiens
HUVEC [33] = assay: Cytotoxicity against HUVEC incubated for 6 hrs by inverted microscopic analysis; type: cell-based; settings: Homo sapiens
K562 = assay: cells; settings: Homo sapiens, K562, 72 h
Description: Antiproliferative activity against human K562 cells assessed as reduction in cell viability incubated for 72 hrs by MTT assay

A-431 [34] = assay: Induction of ROS generation in human A-431 cells incubated for 48 hrs by DCFH-DA dye based flow cytometry; settings: dose 7.5-30 nM

Compound: COc1ccc(CNC(=O)c2cc(F)ccc2N2CCOCC2)cc1O
- Activity (A-431 [1]): Active
- Activity (A-431 [2]): Active
- Activity (A-431 [3]): Active
- Activity [4]: 45.4%
- IC50 (A-431 [5]): 14 nM
- IC50 (MDA-MB-231): 27 nM
- IC50 (L02): 112 nM
- IC50 (Bel-7402): 104 nM
- Ratio IC50 [6]: 10.8
- IC50 [7]: 3030 nM
- Activity (A-431 [8]): Active
- Activity (A-431 [9]): Active
- Activity (A-431 [10]): Active
- Activity (A-431 [11]): 46.14%
- Activity (A-431 [12]): 40.02%
- Activity (A-431 [13]): 13.84%
- Activity (A-431 [14]): 61.16%
- Activity (A-431 [15]): 22.59%
- Activity (A-431 [16]): 18.54%
- Activity (A-431 [17]): 24.95%
- Activity (A-431 [18]): 8.23%
- Activity (A-431 [19]): 26.43%
- Activity (A-431 [20]): 9.79%
- Activity (A-431 [21]): 34.02%
- Activity (A-431 [22]): Dose-Dependent Effect
- Activity (A-431 [23]): Active
- Activity (A-431 [24]): Active
- Stabilty [25]: Stable
- remaining at 3 h, 0.1 µM [26]: 91.5%
- inhibition in vivo at 20 mg/kg/day (H22 [27]): 66%
- Activity [28]: Non-Toxic
- Activity (HUVEC [29]): Active
- inhibition in vivo at 10 mg/kg/day (H22 [30]): 50.3%
- Activity (H22 [31]): Active
- Activity (HUVEC [32]): Active
- IC50 (HUVEC [33]): 120 nM
- IC50 (K562): 19 nM
- Activity (A-431 [34]): Dose-Dependent Effect
